Measurements from patent US11167007B2, “FOXM1 modulators and uses thereof” (City of Hope, priority 2016, dated 2021).

Tests used:
[1] = tested on: AR activity in muscle or SV; assay: Weights of levator ani muscle and seminal vesicles at end of study; type: in vivo, rat; conditions: rats, compared to controls
Protocol: Animals and Drugs. This study was carried out in strict accordance with the recommendations in the Guide for the Care and Use of Laboratory Animals of the National Institutes of Health. All experiments were performed under the IUCAC approval of City of Hope. Animals were purchased from Jackson Laboratory (Bar Harbor, Main). For the pilot pharmacokinetic experiment, nine male Sprague Dawley rats (n=3) were administered 1, 10, or 100 mg/kg intraperitoneal injections thrice per week for four weeks. One hour following the final dose, blood and spinal fluid were collected and analyzed by mass spectrometry. For the efficacy experiment, rats were divided into 3 groups (n=7) as follows: intact, castrated, and thiostrepton. […] Following a treatment period of 7 days, rats were euthanized and organs harvested, weighed and processed for quantitative RT-PCR.
Androgens are known to control the growth and maintenance of the skeletal muscle and seminal vesicles. […] In order to investigate the impact of thiostrepton on these tissues, their weights at the end of the study were assessed. […] Because an equivalent androgen-dependent change in weight cannot be tested in motor neurons, the levels of tissue-selective androgen regulate genes, as a marker of AR activity, were assessed. […] RNA was isolated from spinal cord and LA muscle tissue and transcript levels were measured by RT-qPCR (FIG. 5F, FIG. 5H). […]

[2] = Pilot pharmacokinetic study, plasma and spinal fluid by LC-MS/MS; type: in vivo, rat
Protocol: Animals and Drugs. This study was carried out in strict accordance with the recommendations in the Guide for the Care and Use of Laboratory Animals of the National Institutes of Health. All experiments were performed under the IUCAC approval of City of Hope. Animals were purchased from Jackson Laboratory (Bar Harbor, Main). For the pilot pharmacokinetic experiment, nine male Sprague Dawley rats (n=3) were administered 1, 10, or 100 mg/kg intraperitoneal injections thrice per week for four weeks. One hour following the final dose, blood and spinal fluid were collected and analyzed by mass spectrometry. For the efficacy experiment, rats were divided into 3 groups (n=7) as follows: intact, castrated, and thiostrepton. Thiostrepton was dissolved in 20% DMSO and 80% PEG400 (Sigma Aldrich) and administered at a concentration of 50 mg/kg per day via an IP osmotic pump implant (Alzet). Following a treatment period of 7 days, rats were euthanized and organs harvested, weighed and processed for quantitative RT-PCR.
LC-MS/MS methods. Dried samples were resuspended in tetrahydrofuran spiked with 5 pg/μl reserpine, which was used as an instrument response control. Resuspended samples were separated with an Agilent 1290 UHPLC system (Agilent Technologies, Santa Clara, Calif.) and a Waters Acquity CSH C18 column (Waters, Millford, Mass.) using a linear gradient from 95% buffer A (0.1% formic acid in 60% water/40% acetonitrile) to 100% buffer B (0.1% formic acid in 90% isopropanol/10% acetonitrile) over 2.5 minutes at 380 μL/minute. The UHPLC column eluent was sprayed into an Agilent 6490 triple quadrupole mass spectrometer equipped with a JetStream source (Agilent Technologies). Thiostrepton was detected by monitoring fragments from the doubly charged ion (m/z 832.9) at m/z 1247.4 and 1230.3. Data was analyzed using Agilent MassHunter quantitative analysis software.
A pilot pharmacokinetic study in rats was conducted to achieve desired dosing and to determine if thiostrepton crosses the blood brain barrier. Rats (n=3/group) received low (1 mg/kg), medium (10 mg/kg), or high (100 mg/kg) doses of thiostepton by intraperitoneal (IP) injection, three times a week for four weeks. One hour after the final dose, animals were euthanized and blood and spinal fluid was collected and analyzed by LC-MS/MS (FIG. 5A).

C=C(NC(=O)C(=C)NC(=O)c1csc(C2=N[C@@H]3c4csc(n4)[C@H]4NC(=O)c5csc(n5)[C@H]([C@](C)(O)[C@@H](C)O)NC(=O)[C@H]5CSC(=N5)/C(=C/C)NC(=O)[C@H]([C@@H](C)O)NC(=O)c5csc(n5)[C@]3(CC2)NC(=O)[C@H](C)NC(=O)C(=C)NC(=O)[C@H](C)NC(=O)[C@H]([C@@H](C)CC)N[C@@H]2C=Cc3c([C@H](C)O)cc(nc3[C@H]2O)C(=O)O[C@@H]4C)n1)C(N)=O [thiostrepton]
levator ani (LA) muscle weight [1]: did not change | seminal vesicles (SV) weight [1]: did not change | plasma levels ([2]; rats, 1, 10, 100 mg/kg IP three times a week for four weeks, one hour after final dose): dose-dependent increase | spinal fluid level relative to plasma ([2]; rats, IP, one hour after final dose): much lower levels than the plasma | spinal fluid concentration relative to IC50 in luciferase assay ([2]; rats, high dose): above its IC50 | levels of drug in the spinal fluid ([2]; rats, high dose (100 mg/kg) IP, one hour after final dose): measurable levels
